From publication PMC6627609, “Targeting Quorum Sensing: High-Throughput Screening to Identify Novel LsrK Inhibitors” (International Journal of Molecular Sciences, 2019)
Structures can show the parent of a compound that is named as a salt.

Molecular target: LsrK (Salmonella typhimurium, UniProt Q8ZKQ6)
Assay: biochemical
Format: biochemical, S. typhimurium
Conditions: not given

LsrK, sequence (Q8ZKQ6 whole entry): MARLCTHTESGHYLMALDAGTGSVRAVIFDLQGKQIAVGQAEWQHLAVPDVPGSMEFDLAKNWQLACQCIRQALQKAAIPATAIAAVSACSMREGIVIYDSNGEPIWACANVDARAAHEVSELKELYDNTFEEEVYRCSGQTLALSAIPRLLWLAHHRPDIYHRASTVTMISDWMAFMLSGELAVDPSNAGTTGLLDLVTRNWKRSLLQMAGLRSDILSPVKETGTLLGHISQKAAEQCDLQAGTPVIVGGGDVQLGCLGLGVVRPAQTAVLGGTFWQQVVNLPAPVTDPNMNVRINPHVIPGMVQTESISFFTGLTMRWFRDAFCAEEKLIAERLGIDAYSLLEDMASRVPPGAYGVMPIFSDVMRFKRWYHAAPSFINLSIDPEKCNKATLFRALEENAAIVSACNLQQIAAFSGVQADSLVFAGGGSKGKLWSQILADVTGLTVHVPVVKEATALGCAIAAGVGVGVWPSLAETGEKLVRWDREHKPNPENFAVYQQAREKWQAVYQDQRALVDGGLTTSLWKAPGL

Row | SMILES | inhibition at 50 µM [%]
1 | CN1CCCC(n2nc(Cc3ccc(Cl)cc3)c3ccccc3c2=O)CC1 (stereo not shown) [AZELASTINE HYDROCHLORIDE] | 1
2 | CC1(C)S[C@@H]2[C@H](NC(=O)[C@H](NC(=O)N3CCNC3=O)c3ccccc3)C(=O)N2[C@H]1C(=O)O [AZLOCILLIN SODIUM] | 0
3 | c1ccc(/N=N/c2ccccc2)cc1 [AZOBENZENE] | 1
4 | C[C@H]1[C@H](NC(=O)/C(=N\OC(C)(C)C(=O)O)c2csc(N)n2)C(=O)N1S(=O)(=O)O [AZTREONAM] | 1
5 | CCOC(=O)OC(C)OC(=O)[C@@H]1N2C(=O)[C@@H](NC(=O)[C@H](N)c3ccccc3)[C@H]2SC1(C)C (stereo partly shown) [BACAMPICILLIN HYDROCHLORIDE] | 5
6 | CC(=O)O[C@H]1C(=O)[C@@]2(C)[C@H]([C@H](OC(=O)c3ccccc3)[C@]3(O)C[C@H](O)C(C)=C1C3(C)C)[C@]1(OC(C)=O)CO[C@@H]1C[C@@H]2O [BACCATIN III] | 9
7 | O=c1cc(-c2ccccc2)oc2cc(O)c(O)c(O)c12 [BAICALEIN] | 2
8 | CCC1(CC)C(=O)NC(=O)NC1=O [BARBITAL] | 1
9 | CCOC(=O)[C@H](CCc1ccccc1)N[C@H]1CCc2ccccc2N(CC(=O)O)C1=O [BENAZEPRIL HYDROCHLORIDE] | 0
10 | NS(=O)(=O)c1cc2c(cc1C(F)(F)F)NC(Cc1ccccc1)NS2(=O)=O (stereo not shown) [BENDROFLUMETHIAZIDE] | 0
11 | CC(Cc1cccc(C(F)(F)F)c1)NCCOC(=O)c1ccccc1 (stereo not shown) [BENFLUOREX HYDROCHLORIDE] | 4
12 | C/C(=C(\CCOP(=O)(O)O)SC(=O)c1ccccc1)N(C=O)Cc1cnc(C)nc1N [BENFOTIAMINE] | 0
13 | NC(CO)C(=O)NNCc1ccc(O)c(O)c1O (stereo not shown) [BENSERAZIDE HYDROCHLORIDE] | 97
14 | CCc1oc2ccccc2c1C(=O)c1cc(Br)c(O)c(Br)c1 [BENZBROMARONE] | 106
15 | O=C(O)c1ccccc1 [BENZOIC ACID] | 3
16 | O=C(Oc1cccc2cccnc12)c1ccccc1 [BENZOXIQUINE] | 0
17 | O=C(OOC(=O)c1ccccc1)c1ccccc1 [BENZOYL PEROXIDE] | 11
18 | S=C=NCc1ccccc1 [BENZYL ISOTHIOCYANATE] | 2
19 | CC(C)COCC(CN(Cc1ccccc1)c1ccccc1)N1CCCC1 (stereo not shown) [BEPRIDIL HYDROCHLORIDE] | 18
20 | COc1ccc2cc3[n+](cc2c1OC)CCc1cc2c(cc1-3)OCO2 [BERBERINE CHLORIDE] | 1
21 | COc1c(O)cc2c(c1O)[C@@H]1O[C@H](CO)[C@@H](O)[C@H](O)[C@H]1OC2=O [BERGENIN] | 0
22 | C[C@H]1C[C@H]2[C@@H]3CCC4=CC(=O)C=C[C@]4(C)[C@@]3(F)[C@@H](O)C[C@]2(C)[C@@]1(O)C(=O)CO [BETAMETHASONE] | 1
23 | O=C(O)CCNC(=O)c1ccccc1 [BETAMIPRON] | 0
24 | C=C(C)[C@@H]1CC[C@]2(CO)CC[C@]3(C)[C@H](CC[C@@H]4[C@@]5(C)CC[C@H](O)C(C)(C)[C@@H]5CC[C@]43C)[C@@H]12 [BETULIN] | 4
25 | CC(C)(Oc1ccc(CCNC(=O)c2ccc(Cl)cc2)cc1)C(=O)O [BEZAFIBRATE] | 2
26 | OC(CCN1CCCCC1)(c1ccccc1)C1CC2C=CC1C2 (stereo not shown) [BIPERIDEN] | 1

Same assay, conditions: 50 µM

Row | SMILES | Inhibition (%)
27 | O=C(CNC(=O)c1ccc(Cl)cc1)NO [BENURESTAT] | 3
28 | C[N+](C)(CCOc1ccccc1)Cc1ccccc1.O=C([O-])c1cc2ccccc2cc1O [BEPHENIUM HYDROXYNAPTHOATE] | 1
29 | O=C1CCO1 [BETA-PROPIOLACTONE] | 0
30 | CCC(=O)OCC(=O)[C@@]1(OC(=O)CC)[C@@H](C)C[C@H]2[C@@H]3CCC4=CC(=O)C=C[C@]4(C)[C@@]3(F)[C@@H](O)C[C@@]21C [BETAMETHASONE 17.21-DIPROPIONATE] | 0
31 | COc1ccc(-c2coc3cc(O)cc(O)c3c2=O)cc1 [BIOCHANIN A] | 25
